# Measurements published in patent US20250154134A1, “COMPOUND AS FAK INHIBITOR AND USE THEREOF” (WIGEN BIOMEDICINE TECHNOLOGY (SHANGHAI) CO., LTD., priority 2022, published 2025).
# What was measured:
# [1] = test system: PC3 cells; assay: PC3 cell proliferation, 3D activity assay (3D culture, 14 days); format: cell-based, human; settings: read-out: 3D inhibitory activity against PC3 cells IC50
# Description: (§1) 2D activity assay: 1200 PC3 cells were seeded in a 96-well plate. After overnight adherence culture, A compound serially diluted was added. […] The growth of the cells was evaluated, and the IC50 of the compound inhibiting cell growth was calculated. 3D activity assay: PC3 cells were seeded in a 96-well plate at 1200 cells/well, and 3D culture was performed. 14 days after a compound serially diluted was added, the growth of the cells was measured. The inhibition percentage and IC50 of the compound were calculated compared to the DMSO control group.
# [2] = test system: PC3 cells; assay: PC3 cell proliferation, 2D activity assay (Cell Titer-Lumi, 72 h); format: cell-based, human
# Description: as §1
# [3] = target: FAK recombinant protein (Homo sapiens (Human), UniProt Q05397); assay: Inhibitory activity against FAK enzyme (HTRF, TK substrate); format: biochemical
# Sequence of FAK recombinant protein (Q05397 whole entry): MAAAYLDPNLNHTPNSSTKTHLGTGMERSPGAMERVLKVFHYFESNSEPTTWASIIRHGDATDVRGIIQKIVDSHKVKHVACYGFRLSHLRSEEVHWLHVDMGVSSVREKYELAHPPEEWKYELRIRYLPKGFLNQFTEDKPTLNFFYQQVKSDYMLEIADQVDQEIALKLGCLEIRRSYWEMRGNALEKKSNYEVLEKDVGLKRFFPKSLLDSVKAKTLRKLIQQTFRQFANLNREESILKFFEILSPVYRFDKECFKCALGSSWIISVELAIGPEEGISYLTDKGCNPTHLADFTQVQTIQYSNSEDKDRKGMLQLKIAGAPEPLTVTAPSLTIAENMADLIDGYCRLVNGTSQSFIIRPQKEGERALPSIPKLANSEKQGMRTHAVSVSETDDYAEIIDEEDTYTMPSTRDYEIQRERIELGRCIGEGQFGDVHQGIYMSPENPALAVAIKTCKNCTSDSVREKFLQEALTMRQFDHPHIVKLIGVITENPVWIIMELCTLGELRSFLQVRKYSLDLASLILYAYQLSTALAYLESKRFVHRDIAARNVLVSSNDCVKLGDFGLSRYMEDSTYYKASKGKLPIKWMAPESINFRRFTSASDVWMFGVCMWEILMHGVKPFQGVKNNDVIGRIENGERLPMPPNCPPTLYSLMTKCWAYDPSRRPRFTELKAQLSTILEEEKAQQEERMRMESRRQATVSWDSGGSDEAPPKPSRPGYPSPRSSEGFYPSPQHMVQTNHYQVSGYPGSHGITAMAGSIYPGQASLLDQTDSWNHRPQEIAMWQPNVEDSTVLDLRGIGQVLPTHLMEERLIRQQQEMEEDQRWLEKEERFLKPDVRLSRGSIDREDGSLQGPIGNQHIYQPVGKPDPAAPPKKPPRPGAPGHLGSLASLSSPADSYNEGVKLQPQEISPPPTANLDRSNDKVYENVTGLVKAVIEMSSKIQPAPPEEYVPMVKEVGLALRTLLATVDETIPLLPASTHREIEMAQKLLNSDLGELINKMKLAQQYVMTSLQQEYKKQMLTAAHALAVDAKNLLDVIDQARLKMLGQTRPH
# Description: A compound serially diluted with DMSO was mixed with a FAK recombinant protein. After the mixture was left to stand at room temperature for 10 min, a biotin-labeled TK substrate (TK) and ATP were added. […] The inhibition percentage and IC50 of the compound were calculated compared to the DMSO control group.
# [4] = Homo sapiens, PC-3, read-out: 2D inhibitory activity against PC3 cells IC50
# [5] = read-out: 2D inhibitory activity against PC3 cells IC50
SMILES,"IC50 ([1]; Homo sapiens, PC-3, 336 h)","IC50 [2, 4]",IC50 [3],IC50 [1],"IC50 [2, 5]"
CNC(=O)c1ccc(Nc2ncc(C(F)(F)F)c(Oc3cccc4c3C(=O)N(C)C43CC3)n2)c(OC)c1 [Compound 2],5 to 50 nM,> 2000 nM,< 20 nM,,
COc1cc(C(=O)NC2CCN(C)CC2)c(Cl)cc1Nc1ncc(C(F)(F)F)c(Oc2cccc3c2C(=O)N(C)C32CC2)n1 [Compound 5],< 5 nM,> 2000 nM,< 20 nM,,
COc1cc(C(=O)NC2(C)CCN(C)CC2)c(F)cc1Nc1ncc(C(F)(F)F)c(Oc2cccc3c2C(=O)N(C)C32CC2)n1 [Compound 7],< 5 nM,> 2000 nM,< 20 nM,,
COc1cc(C(=O)NC2CC3(CCN(C)CC3)C2)ccc1Nc1ncc(C(F)(F)F)c(Oc2cccc3c2C(=O)N(C)C32CC2)n1 [Compound 9],< 5 nM,> 2000 nM,< 20 nM,,
COc1cc(C(=O)NC2CCC3(CC2)CN(C)C3)c(F)cc1Nc1ncc(C(F)(F)F)c(Oc2cccc3c2C(=O)N(C)C32CC2)n1 [Compound 10],5 to 50 nM,> 2000 nM,< 20 nM,,
COc1cc(C(=O)NC2CCC3(CC2)CN(C)C3)ccc1Nc1ncc(C(F)(F)F)c(Oc2cccc3c2C(=O)N(C)C32CC2)n1 [Compound 11],5 to 50 nM,> 2000 nM,< 20 nM,,
COc1cc(C(=O)NC2CCC23CCN(C)CC3)c(F)cc1Nc1ncc(C(F)(F)F)c(Oc2cccc3c2C(=O)N(C)C32CC2)n1 (stereo not shown) [Compound 12],< 5 nM,> 2000 nM,< 20 nM,,
COc1cc(C(=O)NC2CCC23CCN(C)CC3)ccc1Nc1ncc(C(F)(F)F)c(Oc2cccc3c2C(=O)N(C)C32CC2)n1 (stereo not shown) [Compound 13],< 5 nM,> 2000 nM,< 20 nM,,
COc1cc(C(=O)NC2CCC3(CC2)CCN3C)c(F)cc1Nc1ncc(C(F)(F)F)c(Oc2cccc3c2C(=O)N(C)C32CC2)n1 (stereo not shown) [Compound 14],< 5 nM,> 2000 nM,< 20 nM,,
COc1cc(C(=O)NC2CCC3(CC2)CCN3C)ccc1Nc1ncc(C(F)(F)F)c(Oc2cccc3c2C(=O)N(C)C32CC2)n1 (stereo not shown) [Compound 15],< 5 nM,> 2000 nM,< 20 nM,,
COc1cc(C(=O)NC2COC3(CCN(C)CC3)C2)c(F)cc1Nc1ncc(C(F)(F)F)c(Oc2cccc3c2C(=O)N(C)C32CC2)n1 (stereo not shown) [Compound 16],< 5 nM,> 2000 nM,< 20 nM,,
COc1cc(C(=O)NC2COC3(CCN(C)CC3)C2)ccc1Nc1ncc(C(F)(F)F)c(Oc2cccc3c2C(=O)N(C)C32CC2)n1 (stereo not shown) [Compound 17],< 5 nM,> 2000 nM,< 20 nM,,
COc1cc(C(=O)NC2CCC3(CCN(C)CC3)C2)c(F)cc1Nc1ncc(C(F)(F)F)c(Oc2cccc3c2C(=O)N(C)C32CC2)n1 (stereo not shown) [Compound 18],5 to 50 nM,> 2000 nM,< 20 nM,,
COc1cc(C(=O)NC2CCC3(CCN(C)CC3)C2)ccc1Nc1ncc(C(F)(F)F)c(Oc2cccc3c2C(=O)N(C)C32CC2)n1 (stereo not shown) [Compound 19],5 to 50 nM,> 2000 nM,< 20 nM,,
COc1cc(C(=O)NC2CCC3(CC2)CCN(C)C3)c(F)cc1Nc1ncc(C(F)(F)F)c(Oc2cccc3c2C(=O)N(C)C32CC2)n1 (stereo not shown) [Compound 20],< 5 nM,> 2000 nM,< 20 nM,,
COc1cc(C(=O)NC2CCC3(CC2)CCN(C)C3)ccc1Nc1ncc(C(F)(F)F)c(Oc2cccc3c2C(=O)N(C)C32CC2)n1 (stereo not shown) [Compound 21],< 5 nM,> 2000 nM,< 20 nM,,
COc1cc(C(=O)NC2CCC3(CC2)CCN(C)CC3)c(F)cc1Nc1ncc(C(F)(F)F)c(Oc2cccc3c2C(=O)N(C)C32CC2)n1 [Compound 22],5 to 50 nM,> 2000 nM,< 20 nM,,
COc1cc(C(=O)NC2CCC3(CC2)CCN(C)CC3)ccc1Nc1ncc(C(F)(F)F)c(Oc2cccc3c2C(=O)N(C)C32CC2)n1 [Compound 23],5 to 50 nM,> 2000 nM,< 20 nM,,

SMILES,"IC50 ([1]; Homo sapiens, PC-3, 336 h)","IC50 [2, 4]",IC50 [3],IC50 [1],"IC50 [2, 5]"
COc1cc(C(=O)NC2CCC3(CCN(C)C3)C2)c(F)cc1Nc1ncc(C(F)(F)F)c(Oc2cccc3c2C(=O)N(C)C32CC2)n1 (stereo not shown) [Compound 24],5 to 50 nM,> 2000 nM,< 20 nM,,
COc1cc(C(=O)NC2CCC3(CCN(C)C3)C2)ccc1Nc1ncc(C(F)(F)F)c(Oc2cccc3c2C(=O)N(C)C32CC2)n1 (stereo not shown) [Compound 25],< 5 nM,> 2000 nM,< 20 nM,,
COc1cc(C(=O)NC2COC3(CCN(C)C3)C2)c(F)cc1Nc1ncc(C(F)(F)F)c(Oc2cccc3c2C(=O)N(C)C32CC2)n1 (stereo not shown) [Compound 26],< 5 nM,> 2000 nM,< 20 nM,,
COc1cc(C(=O)NC2CCN3CCN(C)C3C2)ccc1Nc1ncc(C(F)(F)F)c(Oc2cccc3c2C(=O)N(C)C32CC2)n1 (stereo not shown) [Compound 28],5 to 50 nM,> 2000 nM,< 20 nM,,
COc1cc(C(=O)NC2CCN3CCOC3C2)ccc1Nc1ncc(C(F)(F)F)c(Oc2cccc3c2C(=O)N(C)C32CC2)n1 (stereo not shown) [Compound 29],< 5 nM,> 2000 nM,< 20 nM,,
COc1cc(C(=O)NC2CCN3CCN=C3C2)ccc1Nc1ncc(C(F)(F)F)c(Oc2cccc3c2C(=O)N(C)C32CC2)n1 (stereo not shown) [Compound 30],5 to 50 nM,> 2000 nM,< 20 nM,,
COc1cc(C(=O)NC2CCn3ccnc3C2)ccc1Nc1ncc(C(F)(F)F)c(Oc2cccc3c2C(=O)N(C)C32CC2)n1 (stereo not shown) [Compound 31],5 to 50 nM,> 2000 nM,< 20 nM,,
COc1cc(C(=O)NC2CCn3cnnc3C2)ccc1Nc1ncc(C(F)(F)F)c(Oc2cccc3c2C(=O)N(C)C32CC2)n1 (stereo not shown) [Compound 32],5 to 50 nM,> 2000 nM,< 20 nM,,
COc1cc(C(=O)NC2CCN(C)CC2F)ccc1Nc1ncc(C(F)(F)F)c(Oc2cccc3c2C(=O)N(C)C32CC2)n1 (stereo not shown) [Compound 33],< 5 nM,> 2000 nM,< 20 nM,,
COc1cc(C(=O)NC2CCN(C)CC2OC)ccc1Nc1ncc(C(F)(F)F)c(Oc2cccc3c2C(=O)N(C)C32CC2)n1 (stereo not shown) [Compound 34],< 5 nM,> 2000 nM,< 20 nM,,
"COc1cc(C(=O)NC2CCNCC2)ccc1Nc1ncc(C(F)(F)F)c(Oc2cccc3c2C(=O)N(C)C32CC2)n1 [Compound 35, 3-Methoxy-4-((4-((2′-methyl-3′-oxospiro[cyclopropane-1,1′-isoindolin]-4′-yl)oxy)-5-(trifluoromethyl)pyrimidin-2-yl)amino)-N-(piperidin-4-yl)benzamide]",< 5 nM,> 2000 nM,,,
CCN1CCC(NC(=O)c2ccc(Nc3ncc(C(F)(F)F)c(Oc4cccc5c4C(=O)N(C)C54CC4)n3)c(OC)c2)CC1 [Compound 37],< 5 nM,> 2000 nM,< 20 nM,,
COc1cc(C(=O)NC2CCN(CS(C)(=O)=O)CC2)ccc1Nc1ncc(C(F)(F)F)c(Oc2cccc3c2C(=O)N(C)C32CC2)n1 [Compound 38],5 to 50 nM,> 2000 nM,< 20 nM,,
COc1cc(C(=O)NC2CCN(CC(N)=O)CC2)ccc1Nc1ncc(C(F)(F)F)c(Oc2cccc3c2C(=O)N(C)C32CC2)n1 [Compound 39],< 5 nM,> 2000 nM,< 20 nM,,
COc1cc(C(=O)N2CCC3(CCN(C)C3)C2)ccc1Nc1ncc(C(F)(F)F)c(Oc2cccc3c2C(=O)N(C)C32CC2)n1 (stereo not shown) [Compound 58],,,,5 to 50 nM,> 2000 nM
COc1cc(C(=O)NC2(C)CCN(C)CC2)ccc1Nc1ncc(Cl)c(Oc2cccc3c2C(=O)N(C)C32CC2)n1 [Compound 118],5 to 50 nM,> 2000 nM,,,
COc1cc(N2CC3CCN(C)C3C2)ccc1Nc1ncc(Cl)c(Oc2cccc3c2C(=O)N(C)C32CC2)n1 (stereo not shown) [Compound 171],,,,5 to 50 nM,> 2000 nM
COc1cc(C(=O)NC2CCN(C)CC2)c(F)cc1Nc1ncc(Cl)c(Oc2cccc3c2C(=O)N(C)C32CCCC2)n1 [Compound 209],> 50 nM,> 2000 nM,,,
